pIC50: −log10 of the molar value. Where “and” joins values, the source holds several entries; their conditions need not be identical. Equal values may be shown once. Read-outs that look alike come from different tables or passages of the source.
How the values were obtained:
[1] = target: T1, farnesyl protein transferase (FPT), partially purified from rat brain (Rattus norvegicus, UniProt Q02293+Q04631); assay: Inhibition of farnesyl protein transferase (transfer of [3H]farnesyl to Ras-CVLS); format: biochemical
T1 construct: were partially purified from rat brain by ammonium sulfate fractionation followed by Q-Sepharose
T1 sequence (Q02293 whole entry, one chain of several): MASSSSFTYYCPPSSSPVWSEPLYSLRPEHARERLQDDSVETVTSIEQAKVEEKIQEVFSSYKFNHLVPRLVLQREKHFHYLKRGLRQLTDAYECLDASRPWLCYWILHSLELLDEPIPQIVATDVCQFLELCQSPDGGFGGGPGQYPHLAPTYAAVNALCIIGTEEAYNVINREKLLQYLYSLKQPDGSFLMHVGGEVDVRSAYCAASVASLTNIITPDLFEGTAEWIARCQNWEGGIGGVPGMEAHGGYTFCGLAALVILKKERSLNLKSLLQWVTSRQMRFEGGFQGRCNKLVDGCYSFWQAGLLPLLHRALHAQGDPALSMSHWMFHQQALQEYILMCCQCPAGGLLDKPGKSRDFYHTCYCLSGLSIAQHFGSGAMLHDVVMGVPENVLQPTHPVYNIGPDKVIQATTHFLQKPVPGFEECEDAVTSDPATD
Procedure, shortened: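 Partially purified farnesyl protein transferase with His6-tagged val12-Ha-Ras-CVLS substrate and [3H]farnesyl pyrophosphate, 30 min at room temperature. Stopped with SDS/TCA, precipitated Ras collected on GF/C filters; percent inhibition relative to DMSO vehicle control.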

[2] = test system: T24-BAG4 human bladder carcinoma cells expressing an activated H-ras gene; assay: Cell Mat Assay: tumor cell colony inhibition (tIC50); format: cell-based; conditions: inhibition of tumor cell growth
Protocol: (§1) Compound-induced colony inhibition was assayed by addition of serial dilutions of compound directly to the growth medium 24 h after tumor cell planting, and incubating cells for an additional 14 d to allow colony formation. Assays were terminated by rinsing monolayers twice with phosphate-buffered saline (PBS), fixing the monolayers with a 1% glutaraldehyde solution in PBS, then visualizing tumor cells by staining with X-Gal (Price, J., et al., Lineage analysis in the vertebrate nervous system by retrovirus-mediated gene transfer, Proc. Natl. Acad. Sci.84, 156-160(1987)). […] Both IC50 values were obtained by determining the density of tumor cells and mat cells by visual inspection and enumeration of cells per colony and the number of colonies under the microscope.

[3] = test system: Normal human HEPM fibroblasts; assay: Cell Mat Assay: density of mat cells (mIC50); format: cell-based
Protocol: as §1

[4] = Ras-CVLS farnesylation, partially purified rat brain FPT, read-out: FPT IC50
[5] = FPT IC50, Ras-CVLS farnesylation, partially purified rat brain FPT
[6] = enzyme inhibition, read-out: FPT IC50

SMILES | pIC50 [1, 4] | pIC50 ([2]; Homo sapiens) | pIC50 ([3]; Homo sapiens, Fibroblast) | further results
O=C(Cc1ccccc1)N1CCN(C2c3ccc(Cl)cc3CCc3cccnc32)CC1 (stereo not shown) [Example 80] | – | < 4.30 | < 4.30 | pIC50 [1, 5]: 5.56
O=C(Cc1ccncc1)N1CCC(=C2c3ccc(Cl)cc3C=Cc3cccnc32)CC1 [Example 307] | 6.66 and 6.85 | – | – | pIC50 [2]: 4.90; pIC50 [3]: 4.30
O=C(Cc1cc[n+]([O-])cc1)N1CCN(C2c3ccc(Cl)cc3CCc3cccnc32)CC1 (stereo not shown) [Example 425-B] | – | 4.90 | < 4.60 | pIC50 [1, 6]: 6.13
O=C(Cc1ccccc1)NCC(=O)N1CCN(C2c3ccc(Cl)cc3CCc3cccnc32)CC1 (stereo not shown) [Example 209] | 5.10 | 4.60 | < 4.30 | –
O=C(Cc1cccnc1)N1CCN([C@H]2c3ccc(Cl)cc3CCc3cccnc32)CC1 [223 (5.97)] | – | 5.10 | < 4.30 | pIC50 [1, 5]: 6.72 and 6.14 and 6.21
O=C(Cc1cc[n+]([O-])cc1)N1CCN(C2c3ccc(Cl)cc3CCc3cc(Br)cnc32)CC1 (stereo not shown) [Example 425-H] | – | > 5.80 | < 4.60 | pIC50 ([1]; FPT IC50, enzyme inhibition): 7.23 and 7.31 and 7.12
O=C(Cc1csc2ccccc12)N1CCC(=C2c3ccc(Cl)cc3CCc3cccnc32)CC1 [221 (5.94)] | – | – | – | pIC50 [2]: 5.20; pIC50 [3]: < 4.30
O=C(Cc1ccc[n+]([O-])c1)N1CCN(C2c3ccc(Cl)cc3CCc3cc(Br)cnc32)CC1 (stereo not shown) [Example 425-K] | – | 5.20 | < 4.60 | pIC50 ([1]; FPT IC50, enzyme inhibition): 6.40 and 6.39
O=C(Cc1ccc(O)cc1)N1CCC(=C2c3ccc(Cl)cc3CCc3cccnc32)CC1 [Example 128] | 5.52 | 4.60 | < 4.30 | –
O=C(Cc1ccccc1[N+](=O)[O-])N1CCC(=C2c3ccc(Cl)cc3CCc3cccnc32)CC1 [Example 126] | 5.54 | 4.30 | < 4.30 | –
O=C(Cc1cccnc1)N1CCN([C@@H]2c3ccc(Cl)cc3CCc3cccnc32)CC1 [223 (5.96)] | – | 4.60 | < 4.30 | pIC50 [1, 5]: 5.68
NS(=O)(=O)c1ccc(C(=O)N2CCC(=C3c4ccc(Cl)cc4CCc4cccnc43)CC2)cc1 [Example 90] | 5.47 | 4.30 | < 4.30 | –
O=C(Cc1ccc[n+]([O-])c1)N1CCN(C2c3ccc(Cl)cc3CCc3cccnc32)CC1 (stereo not shown) [Example 197] | – | 4.60 | < 4.30 | pIC50 [1, 5]: 5.93
O=C(CCCc1ccccc1)N1CCC(=C2c3ccc(Cl)cc3CCc3cccnc32)CC1 [Example 11] | 5.37 | – | – | pIC50 [2]: < 4.30; pIC50 [3]: < 4.30
CC(C)(C)c1cnc2c(c1)CCc1cc(Cl)ccc1C2=C1CCN(C(=O)Cc2ccncc2)CC1 [Example 305] | – | – | – | FPT inhibition ([1]; at 4 μM): 40% @4 μM; pIC50 [2]: 4.60; pIC50 [3]: < 4.30
O=C(Cc1cccnc1)N1CCN(C2c3ccc(Cl)cc3CCc3ccc[n+]([O-])c32)CC1 (stereo not shown) [184 (5.60)] | – | 4.90 | < 4.30 | pIC50 [1, 5]: 6.04

SMILES | pIC50 [1, 4] | pIC50 ([2]; Homo sapiens) | pIC50 ([3]; Homo sapiens, Fibroblast) | further results
Cc1cnc2c(c1)CCc1cc(Cl)ccc1C2=C1CCN(C(=O)Cc2ccncc2)CC1 [Example 301] | 7.40 and 7.12 | – | < 4.30 | –
O=C(Cc1cccnc1)N1CCN(C2c3ccc(Cl)cc3CCc3c(Cl)ccnc32)CC1 (stereo not shown) [Example 355] | – | 5.10 | < 4.60 | pIC50 [1, 5]: 6.06
O=C(C1CCS(=O)(=O)CC1)N1CCC(=C2c3ccc(Cl)cc3CCc3cccnc32)CC1 [Example 95] | 5.38 | < 4.30 | < 4.30 | –
CN(C)c1ccc(CC(=O)N2CCN(C3c4ccc(Cl)cc4CCc4cccnc43)CC2)cc1 (stereo not shown) [Example 189] | – | 4.43 | < 4.30 | pIC50 [1, 5]: 5.61
O=C(Cc1ccccc1[N+](=O)[O-])C(=O)N1CCC(=C2c3ccc(Cl)cc3CCc3cccnc32)CC1 [220 (5.93)] | – | – | – | pIC50 [2]: 4.60; pIC50 [3]: < 4.30
O=C(Cc1cccnc1)N1CCC(=C2c3ccc(Cl)cc3CCc3ccc[n+]([O-])c32)CC1 [Example 229] | 5.36 | 4.43 | < 4.30 | –
O=C(C(=O)N1CCC(=C2c3ccc(Cl)cc3CCc3cccnc32)CC1)c1c[nH]c2ccccc12 [219 (5.92)] | – | – | – | pIC50 [2]: 4.60; pIC50 [3]: < 4.30
CC(C)(C(=O)N1CCN(C2c3ccc(Cl)cc3CCc3cccnc32)CC1)c1ccncc1 (stereo not shown) [Example 425] | – | 4.90 | < 4.60 | pIC50 [1, 6]: 5.76
O=C(Cc1ccncc1)N1CCC(=C2c3ccncc3CCc3cc(Cl)ccc32)CC1 [160 (5.39)] | – | – | – | pIC50 [2]: 4.43; pIC50 [3]: 4.30
O=C(Cc1ccncc1)N1CCC(=C2c3ccc(Cl)cc3CCc3cc(Cl)cnc32)CC1 [180 (5.47)] | – | – | – | pIC50 [2]: 4.74; pIC50 [3]: < 4.30
O=C(c1cc[n+]([O-])cc1)N1CCC(=C2c3ccc(Cl)cc3CCc3ccc[n+]([O-])c32)CC1 [Example 131] | – | – | – | FPT inhibition ([1]; at 13.4 μM): 16% at 13.4 μM
O=C(Cc1cc[nH]c(=O)c1)N1CCC(=C2c3ccc(Cl)cc3CCc3cc(Br)cnc32)CC1 [Example 411-EE] | – | – | – | FPT inhibition at the concentration in parentheses ([1]; (3.3) μM): 10 (3.3)
O=C(c1ccccc1)N1CCC(=C2c3ccc(Cl)cc3CCc3cccnc32)CC1 [Example 54] | 5.28 | – | – | –
CC(C)(C(=O)N1CCC(=C2c3ccc(Cl)cc3CCc3cccnc32)CC1)c1ccncc1 [Example 299] | 5.87 | – | – | –
O=C(Cn1cncn1)N1CCC(=C2c3ccc(Cl)cc3CCc3cc(Br)cnc32)CC1 [Example 412] | 6.28 | – | – | –

Continued, in another order:

pIC50 [1, 4] | pIC50 ([2]; Homo sapiens) | SMILES | pIC50 ([3]; Homo sapiens, Fibroblast) | further results
5.17 | 4.43 | O=C(CCc1ccccc1)NCC(=O)N1CCN(C2c3ccc(Cl)cc3CCc3cccnc32)CC1 (stereo not shown) [Example 217] | 4.30 | –
5.39 | 4.43 | O=C(NCc1ccccc1)N1CCC(C2c3ccc(Cl)cc3CCc3cccnc32)CC1 (stereo not shown) [Example 318] | 4.43 | –
5.32 | < 4.30 | CC(C)(C)OC(=O)NCC(=O)N1CCN(C2c3ccc(Cl)cc3CCc3cccnc32)CC1 (stereo not shown) [Example 208] | < 4.30 | –
5.56 | < 4.30 | CC(S)C(=O)NCC(=O)N1CCN(C2c3ccc(Cl)cc3CCc3cccnc32)CC1 (stereo not shown) [Example 81] | < 4.30 | –
– | < 4.30 | O=C(Cc1ccc[n+]([O-])c1)N1CCC(C2c3ccc(Cl)cc3CCc3ccc[n+]([O-])c32)CC1 (stereo not shown) [Example 237] | < 4.30 | inhibition at 4 µM ([1]; at 4 μM): 18%
– | 5.20 | CN1CCCC(CC(=O)N2CCN(C3c4ccc(Cl)cc4CCc4cc(Br)cnc43)CC2)C1 (stereo not shown) [Example 425-U] | 5.00 | –
5.00 | 4.43 | O=C(CCc1ccc(O)cc1)NCC(=O)N1CCN(C2c3ccc(Cl)cc3CCc3cccnc32)CC1 (stereo not shown) [Example 218] | 4.30 | –
5.22 | 5.20 | O=C(Cc1ccc(O)c(O)c1)N1CCC(C2c3ccc(Cl)cc3CCc3cccnc32)CC1 (stereo not shown) [Example 321] | < 4.30 | –
5.39 | 4.60 | CC(=O)N1CCC(C(=O)N2CCN([C@@H]3c4ccc(Cl)cc4CCc4cccnc43)CC2)CC1 [226 (5.100)] | < 4.30 | –
5.57 | < 4.30 | CN(C)c1ccc(CC(=O)N2CCC(=C3c4ccc(Cl)cc4CCc4cccnc43)CC2)cc1 [Example 297] | < 4.30 | –
5.37 | 4.30 | O=C(/C=C/c1cccnc1)N1CCC(=C2c3ccc(Cl)cc3CCc3cccnc32)CC1 [Example 96] | < 4.30 | –
5.44 | – | O=C(Cc1ccncc1)N1CCC(=C2c3cc(F)ccc3CCc3cccnc32)CC1 [Example 310] | – | pIC50 [2]: 4.60; pIC50 [3]: < 4.30
5.85 | 4.30 | S=C(c1ccccc1)N1CCC(=C2c3ccc(Cl)cc3CCc3cccnc32)CC1 [Example 121] | < 4.30 | –
– | < 4.60 | CC(C)(C(=O)N1CCC(=C2c3ccc(Cl)cc3CCc3cccnc32)CC1)c1cc[n+]([O-])cc1 [Example 411-E] | < 4.60 | pIC50 [1, 6]: 5.94
– | 4.90 | Nc1cc2c(nc1Br)C(=C1CCN(C(=O)Cc3ccncc3)CC1)c1ccc(Cl)cc1CC2 [Example 405] | < 4.60 | pIC50 [1, 6]: 5.89
5.31 | > 5.51 | CC(C(=O)N1CCN(C2c3ccc(Cl)cc3CCc3cccnc32)CC1)c1cccnc1 (stereo not shown) [Example 191] | 4.30 | –
– | 5.30 | O=C(Nc1ccncc1)N1CCN(C2c3ccc(Cl)cc3CCc3cccnc32)CC1 (stereo not shown) [183 (6.5)] | 4.74 | –
5.10 | 4.60 | O=C(Cc1ccccc1O)NCC(=O)N1CCN(C2c3ccc(Cl)cc3CCc3cccnc32)CC1 (stereo not shown) [Example 212] | 4.43 | –
5.41 | 4.40 | CS(=O)(=O)c1ccc(C(=O)N2CCC(=C3c4ccc(Cl)cc4CCc4cccnc43)CC2)cc1 [Example 93] | < 4.30 | –
4.45 | – | CC(=O)N1CCC(=C2c3ccncc3CCc3cc(Cl)ccc32)CC1 [Example 143] | – | –
6.49 | – | CC(C)(C(=O)N1CCC(=C2c3ccc(Cl)cc3CCc3cc(Br)cnc32)CC1)c1ccncc1 [Example 361] | – | –
5.10 | – | O=C(Cc1ccc(O)cc1)NCC(=O)N1CCN(C2c3ccc(Cl)cc3CCc3cccnc32)CC1 (stereo not shown) [Example 210] | – | –
5.37 | – | O=C(Cc1cccnc1)N1CCC(=C2c3ccc(Cl)cc3C(O)Cc3cccnc32)CC1 (stereo not shown) [Example 284] | – | –
